The target in assay [1] is T1, 5-hydroxytryptamine receptor 1B (Rattus norvegicus, UniProt P28564). In words: Evaluated for binding affinity towards 5-hydroxytryptamine 1B receptor.
Assay [2] addresses T2, Serotonin 2 (5-HT2) receptor (Rattus norvegicus, UniProt P30994+P08909+P14842). In words: Binding affinity towards 5-hydroxytryptamine 2 receptor using [3H]- ketanserin as radioligand. In kind it is protein assay.
Assay [3] concerns the target T2, Serotonin 2 (5-HT2) receptor. The assay is described as follows: Binding affinity towards 5-hydroxytryptamine 2 receptor using [3H]- 1-(4-bromo-2,5-dimethoxy-phenyl)-2-aminopropane (D) as radioligand. The format is protein assay.
For assay [4], the target named is T3, 5-hydroxytryptamine receptor 1A (Rattus norvegicus, UniProt P19327).
T3 sequence (P19327 whole entry): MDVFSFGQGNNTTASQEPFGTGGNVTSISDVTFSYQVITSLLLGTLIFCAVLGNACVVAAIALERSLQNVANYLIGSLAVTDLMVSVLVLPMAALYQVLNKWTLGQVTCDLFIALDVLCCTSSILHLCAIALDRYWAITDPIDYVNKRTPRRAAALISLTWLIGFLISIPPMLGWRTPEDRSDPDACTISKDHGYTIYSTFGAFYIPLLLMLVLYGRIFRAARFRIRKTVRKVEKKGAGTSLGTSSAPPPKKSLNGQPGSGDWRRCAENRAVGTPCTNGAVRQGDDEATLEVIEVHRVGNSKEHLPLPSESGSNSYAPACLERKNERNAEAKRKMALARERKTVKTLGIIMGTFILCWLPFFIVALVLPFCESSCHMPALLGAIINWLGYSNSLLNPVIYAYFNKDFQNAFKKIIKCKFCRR
In words: Binding affinity towards 5-hydroxytryptamine 1A receptor.

The species named for assay [5] is Rattus norvegicus. The assay is described as follows: The dose at which the animals would show 50% responses on compound-appropriate lever. In kind it is functional.
The test system of assay [6] is Rattus norvegicus. The assay is described as follows: The dose at which the animals would show 50% response on 8-OH-DPAT appropriate lever at a dose 0.2 mg/kg (7/7 no of animals). In kind it is functional.
For assay [7], the system named is Rattus norvegicus. The assay is described as follows: 8-OH-DPAT appropriate response of animals/min rate in %0.2 mg/Kg where stimulus generalization occurred(7/7 no of animals). The format is functional.
The subject of assay [8] is Rattus norvegicus. The assay is described as follows: 8-OH-DPAT appropriate response rate in % at 0.2 mg/kg where stimulus generalization occurred(7/7 no of animals). In kind it is functional.
Assay [9] is filed under the species Rattus norvegicus. The assay is described as follows: The dose at which the animals show 50% responses on drug-appropriate lever. The format is functional.
The test system of assay [10] is Rattus norvegicus. The assay is described as follows: 8-OH-DPAT appropriate response of animals/min rate in % 0.9 mg/kg where stimulus generalization occurred(4/7 no of animals). In kind it is functional.
Assay [11] has as its system Rattus norvegicus. In words: 8-OH-DPAT appropriate response of animals/min rate in % 0.4 mg/kg where stimulus generalization occurred(4/5 no of animals). In kind it is functional.
The species entered for assay [12] is Rattus norvegicus. The assay is described as follows: DOM appropriate response of animals/min rate in % at […] where stimulus generalization occurred(5/5 no of animals). In kind it is functional.
In assay [13] the test system is Rattus norvegicus. In words: 8-OH-DPAT appropriate response rate in % at 0.4 mg/kg where stimulus generalization occurred(4/5 no of animals). In kind it is functional.
For assay [14], the system named is Rattus norvegicus. The assay is described as follows: DOM appropriate response rate in % at 6.0 mg/Kg where stimulus generalization occurred(3/5 no of animals). In kind it is functional.
For assay [15], the system named is Rattus norvegicus. In words: 8-OH-DPAT appropriate response rate in % at 0.9 mg/kg where stimulus generalization occurred (4/7 no of animals). In kind it is functional.
Assay [16] deals with Rattus norvegicus. In words: The dose at which the animals would show 50% responses on DOM appropriate lever at a dose 6.0 mg/kg. In kind it is functional.
The test system of assay [17] is Rattus norvegicus. In words: DOM appropriate response rate in % at 5.0 mg/Kg where stimulus generalization occurred(4/5 no of animals). In kind it is functional.
The subject of assay [18] is Rattus norvegicus. The assay is described as follows: 8-OH-DPAT appropriate response rate in % at 0.8 mg/kg where stimulus generalization occurred(3/4 no of animals). In kind it is functional.
Assay [19] relates to Rattus norvegicus. In words: DOM appropriate response rate in % at 2.0 mg/Kg where stimulus generalization occurred(4/5 no of animals). In kind it is functional.
Assay [20] has as its system Rattus norvegicus. In words: DOM appropriate response of animals/min rate in % at 5.0 mg/Kg where stimulus generalization occurred(4/5 no of animals). The format is functional.
Assay [21] concerns Rattus norvegicus. The assay is described as follows: DOM appropriate response of animals/min rate in % at 2.0 mg/kg where stimulus generalization occurred(4/5 no of animals). The format is functional.
Assay [22] concerns Rattus norvegicus. In words: 8-OH-DPAT appropriate response rate in % at 1.1 mg/kg where stimulus generalization occurred(4/5 no of animals). The format is functional.
The species named for assay [23] is Rattus norvegicus. In words: 8-OH-DPAT appropriate response rate in % at […] where stimulus generalization occurred(2/5 no of animals); No responding. In kind it is functional, organism-based. Also on record: dose 1.2 mg/kg.
The test system of assay [24] is Rattus norvegicus. In words: DOM appropriate response of animals/min rate in % at 0.6 mg/Kg where stimulus generalization occurred(5/5 no of animals). In kind it is functional.
Assay [25] deals with Rattus norvegicus. In words: DOM appropriate response rate in % at 0.6 mg/Kg where stimulus generalization occurred(5/5 no of animals). In kind it is functional.
For assay [26], the species on record is Rattus norvegicus. In words: DOM appropriate response rate in % at […] where stimulus generalization occurred(5/5 no of animals). The format is functional.
In assay [27] the test system is Rattus norvegicus. In words: 8-OH-DPAT appropriate response of animals/min rate in % 1.0 mg/kg where stimulus generalization occurred(4/5 no of animals). In kind it is functional.
The test system of assay [28] is Rattus norvegicus. In words: 8-OH-DPAT appropriate response of animals/min rate in % 1.1 mg/kg where stimulus generalization occurred(4/5 no of animals). In kind it is functional.
The subject of assay [29] is Rattus norvegicus. The assay is described as follows: DOM appropriate response of animals/min rate in % at 6.0 mg/Kg where stimulus generalization occurred(3/5 no of animals). The format is functional.
Assay [30] deals with Rattus norvegicus. The assay is described as follows: 8-OH-DPAT appropriate response of animals/min rate in % 0.8 mg/kg where stimulus generalization occurred(3/4 no of animals). The format is functional.
Assay [31] concerns Rattus norvegicus. The assay is described as follows: 8-OH-DPAT appropriate response rate in % at 1.0 mg/kg where stimulus generalization occurred(4/5 no of animals). The format is functional.
The test system of assay [32] is Rattus norvegicus. The assay is described as follows: DOM appropriate response rate in % at 1.0 mg/kg where stimulus generalization occurred (5/5 no of animals). The format is functional.
Assay [33] deals with T1, 5-hydroxytryptamine receptor 1B. The assay is described as follows: Binding affinity against 5-HT1B serotonin receptor in rat striatum. The format is tissue-based.
Assay [34] has as its system Rattus norvegicus. The assay is described as follows: DOM appropriate response of animals/min at 1.0 mg/kg where stimulus generalization occurred (5/5 no of animals). The format is functional.
Assay [35] concerns the target T3, 5-hydroxytryptamine receptor 1A. In words: Binding affinity against 5-hydroxytryptamine 1A receptor in rat hippocampal tissue. In kind it is tissue-based, Hippocampus.

The source made the active and inactive calls. No cut-off for these calls is given here.

T1 sequence (P28564 whole entry): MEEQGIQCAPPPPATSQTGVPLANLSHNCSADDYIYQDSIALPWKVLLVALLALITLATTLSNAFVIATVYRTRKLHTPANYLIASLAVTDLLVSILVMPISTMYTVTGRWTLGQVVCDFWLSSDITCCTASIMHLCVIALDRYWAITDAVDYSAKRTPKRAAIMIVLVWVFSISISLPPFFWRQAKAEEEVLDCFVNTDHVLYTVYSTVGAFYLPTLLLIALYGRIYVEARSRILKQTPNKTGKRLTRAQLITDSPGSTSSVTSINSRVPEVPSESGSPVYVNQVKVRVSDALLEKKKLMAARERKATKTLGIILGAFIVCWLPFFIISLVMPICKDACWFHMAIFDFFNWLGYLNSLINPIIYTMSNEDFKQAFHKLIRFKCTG

Turning to `CCCN(CCC)C1CCc2cccc(OC)c2C1` (configuration not stated), the Ki was greater than 1000 nM in assay [1], 3050 nM in assay [2], 280 nM in [3] and 1.3 nM in [4]. The same molecule gave a 50% effective dose (ED50) in assay [5] of 0.22 mg/kg.
As to `CCCN(CCC)CCc1c[nH]c2ccc(O)cc12`, the Ki came to 4300 nM in assay [1], 450 nM in assay [2], 1 nM in [3] and 7.1 nM in assay [4].
Turning to `CCCN(CCC)C1CCc2cccc(O)c2C1` (configuration not stated) [8-OH-DPAT], the median effective dose (ED50) in assay [6] was 0.08 mg/kg. Further, the results for the Ki in assay [2] and in assay [3] were 5350 nM and 635 nM, respectively. Moreover, the Response in assay [7] is recorded as 16.8. Besides, the Responding in assay [8] is 88%.
Regarding `COc1ccc2[nH]cc(CCN(C)C)c2c1` [MEBUFOTENIN], the Ki in assay [1] was 350 nM; in assay [4], 7.8 nM. This molecule also had an ED50 in assay [9] of 1.43 mg/kg.
Turning to `CCCN(CCC)CCc1c[nH]c2ccc(OC)cc12`, the Response in [10] is recorded as 13.6; in assay [11], 13.6; in assay [12], 12.3; in assay [20], 10.3; in assay [21], 12; in assay [24], 10.2. In addition, the Response in assay [27] is 5.6; in assay [28], 4.1; in assay [29], 5.2; in assay [30] it was 9.2. Also, the inhibition constant Ki in assay [1] came out at 1800 nM; in [2] it was 655 nM; in [3], 7.1 nM; in assay [4], 4 nM. The Responding in [13] worked out at 15%; in assay [14], 91%; in assay [15], 56%; in assay [17], 74%; in assay [18], 56%; in [19], 51%. Moreover, the Responding worked out at 81% in assay [22], 21% in assay [25], 49% in assay [26] and 67% in assay [31]. In [16], this molecule had an ED50 of 1.68 mg/kg. The Responding result in assay [23] was “inactive”.
For `COc1cc(CC(C)N)c(OC)cc1C` (configuration not stated) [DOM], the Responding in assay [32] turned out to be 92%. Moreover, the figures for the Ki in assay [33] and in assay [35] were 2070 nM and 5120 nM, respectively. This molecule also returned a Response in assay [34] of 12.8.

The Ki is a dissociation constant, usually derived from enzyme kinetics or from competition with a known ligand. Read a low Ki as a stronger hold on the target. A word on the ED50: it is the midpoint of the dose-response relation. Read a high ED50 as a need for a large dose.

The record behind these values is ChEMBL document CHEMBL1124092 (J Med Chem, 1988).
